In DBAASP:
≈ marks a conversion by molar mass, not a printed value. Values belong to the compound of their own block, whether it stands above or below them.

Columns and labels:
Test in all cases: ≥ marks a high value that may be exact or a test limit, other limits are often not marked, values filed in µg/mL are converted to µM
[1] = tested on: Candida tropicalis ATCC 20240
[2] = tested on: Candida parapsilosis ATCC 20224
[3] = tested on: Candida glabrata ATCC 90525
[4] = tested on: Candida albicans ATCC 2048
Candida krusei ATCC 6258 = tested on: Candida krusei ATCC 6258
Escherichia coli MG1655 = tested on: Escherichia coli MG1655
[5] = tested on: Staphylococcus aureus ATCC 33592
[6] = tested on: Candida albicans ATCC 18804
[7] = tested on: Micrococcus luteus 1D00051
[8] = tested on: Vibrio vulnificus 1H00066
[9] = tested on: Staphylococcus aureus 1D00101
Escherichia coli UTI89 = tested on: Escherichia coli UTI89
[10] = tested on: Escherichia coli K12 MG1655
[11] = tested on: Salmonella enterica subsp. enterica serovar Typhimurium ATCC 14028
[12] = tested on: Staphylococcus epidermidis
[13] = tested on: Klebsiella pneumoniae ATCC 700603
[14] = tested on: Pseudomonas aeruginosa ATCC 10145
[15] = tested on: Staphylococcus aureus ATCC 27660
Escherichia coli D31 = tested on: Escherichia coli D31
[16] = tested on: Enterococcus faecium BCRC 15B0132
[17] = tested on: Acinetobacter baumannii BCRC 14B0091
[18] = tested on: Escherichia coli BCRC 13B0207
[19] = tested on: Acinetobacter baumannii BCRC 14B0097
[20] = tested on: Escherichia coli BCRC 13B0198
[21] = tested on: Acinetobacter baumannii BCRC 14B0100
[22] = tested on: Salmonella typhimurium KCTC 1926
[23] = tested on: Bacillus subtilis KCTC 3068
[24] = tested on: Escherichia coli KCTC 1682
[25] = tested on: Staphylococcus epidermidis KCTC 1917
[26] = tested on: Trichosporon beigelii KCTC 7707
[27] = tested on: Pseudomonas aeruginosa CCARM 2180
[28] = tested on: Acinetobacter baumannii KCCM 40203
[29] = tested on: Acinetobacter baumannii ATCC BAA-1605
[30] = tested on: Enterococcus faecium ATCC 51559
[31] = tested on: Malassezia furfur KCTC 7744
[32] = tested on: Enterococcus faecium KCCM 12118
[33] = tested on: Candida albicans ATCC 90028
[34] = tested on: Candida parapsilosis ATCC 22019
[35] = tested on: Enterococcus faecalis KCCM 29212
[36] = tested on: Enterococcus faecalis KCCM 11814
[37] = tested on: Escherichia coli ATCC 25922
[38] = tested on: Salmonella typhimurium CMCC 50013
[39] = tested on: Staphylococcus aureus ATCC 29213

SMILES: CC(C)C[C@H](NC(=O)[C@H](C)N)C(=O)N[C@@H](CCC(N)=O)C(=O)NCC(=O)N[C@@H](C)C(=O)N[C@@H](CCCCN)C(=O)N[C@@H](CCC(=O)O)C(=O)N[C@@H](CCCN=C(N)N)C(=O)N[C@@H](C)C(=O)N[C@@H](Cc1cnc[nH]1)C(=O)N[C@@H](CCC(N)=O)C(=O)N[C@@H](CCC(N)=O)C(=O)O [ALQGAKERAHQQ]
- MIC [1]: ≥ 75 µM
- MIC [2]: ≥ 270 µM
- MIC [3]: ≥ 260 µM
- MIC [4]: ≥ 280 µM
- MIC (Candida krusei ATCC 6258): ≥ 270 µM

SMILES: CC[C@H](C)[C@H](NC(C)=O)C(=O)N[C@@H](CCCCN)C(=O)N[C@@H](CCCN=C(N)N)C(=O)N[C@@H](CC(C)C)C(=O)N[C@@H](CC(N)=O)C(=O)N[C@@H](CO)C(=O)N[C@@H](Cc1c[nH]c2ccccc12)C(=O)N[C@@H](CC(C)C)C(=O)N[C@@H](CCCN=C(N)N)C(=O)N[C@@H](CCCCN)C(N)=O [IKRLNSWLRK]
- MIC (Escherichia coli MG1655): ≥ 64 µM
- MIC [5]: ≥ 128 µM
- MIC [6]: ≥ 128 µM

SMILES: CC[C@H](C)[C@H](NC(=O)CNC(=O)[C@H](CCCCN)NC(=O)[C@H](Cc1c[nH]c2ccccc12)NC(=O)[C@H](CC(C)C)NC(=O)[C@H](CCCCN)NC(=O)[C@H](CCCCN)NC(=O)[C@H](C)NC(=O)[C@H](CCCCN)NC(=O)[C@H](CCCCN)NC(=O)[C@H](Cc1ccccc1)NC(=O)CNC(=O)[C@H](CCCCN)NC(=O)[C@H](C)NC(=O)[C@H](Cc1ccccc1)NC(=O)[C@@H](NC(=O)[C@H](CCCCN)NC(=O)[C@@H](NC(=O)[C@H](CC(C)C)NC(=O)[C@H](CCCCN)NC(=O)[C@@H](N)CCCCN)[C@@H](C)CC)C(C)C)C(=O)NCC(=O)O [KKLIKVFAKGFKKAKKLWKGIG]
- MIC [13]: 1.88 µM (≈ 4.73 µg/mL)
- MIC [14]: 1.88 µM (≈ 4.73 µg/mL)
- MIC [15]: 0.97 µM (≈ 2.44 µg/mL)
- MIC (Escherichia coli D31): 0.94 µM (≈ 2.37 µg/mL)

SMILES: CC(=O)N[C@@H](CCCCN)C(=O)N[C@@H](CCCCN)C(=O)N[C@@H](Cc1c[nH]c2ccccc12)C(=O)N[C@@H](CCCN=C(N)N)C(=O)N[C@@H](CCCCN)C(=O)N[C@@H](Cc1c[nH]c2ccccc12)C(=O)N[C@@H](CC(C)C)C(=O)N[C@@H](C)C(=O)N[C@@H](CCCCN)C(=O)N[C@@H](CCCCN)C(N)=O [KKWRKWLAKK]
- MIC [16]: ≥ 46.7 µM
- MIC [17]: ≥ 46.7 µM
- MIC [18]: ≥ 46.7 µM
- MIC [19]: ≥ 46.7 µM
- MIC [20]: ≥ 46.7 µM
- MIC [21]: ≥ 46.7 µM

SMILES: CC[C@H](C)[C@H](NC(=O)[C@H](Cc1c[nH]c2ccccc12)NC(=O)[C@H](CC(C)C)NC(=O)[C@@H](N)CC(C)C)C(=O)N[C@@H](C)C(=O)N[C@@H](CC(C)C)C(=O)N[C@@H](CCCN=C(N)N)C(=O)N[C@@H](CCCCN)C(=O)N[C@@H](CCCCN)C(N)=O [LLWIALRKK]
- MIC [22]: 3.51 µM (≈ 4 µg/mL)
- MIC [23]: 3.51 µM (≈ 4 µg/mL)
- MIC [24]: 3.51 µM (≈ 4 µg/mL)
- MIC [25]: 3.51 µM (≈ 4 µg/mL)
- MIC [26]: 1.32 µM (≈ 1.5 µg/mL)
- MIC [27]: ≥ 80 µM
- MIC [28]: ≥ 80 µM
- MIC [29]: ≥ 80 µM
- MIC [30]: 1.75 µM (≈ 2 µg/mL)
- MIC [31]: 0.614 µM (≈ 0.699 µg/mL)
- MIC [32]: 7.01 µM (≈ 7.99 µg/mL)
- MIC [33]: 0.614 µM (≈ 0.699 µg/mL)
- MIC [34]: 0.614 µM (≈ 0.699 µg/mL)
- MIC [35]: 7.01 µM (≈ 7.99 µg/mL)
- MIC [36]: ≥ 80 µM

Next, values leading:

- MIC [7]: 9 µM (≈ 19.5 µg/mL)
- MIC [8]: ≥ 80 µM
- MIC [9]: 4 µM (≈ 8.65 µg/mL)
SMILES: CC[C@H](C)[C@H](NC(=O)[C@H](CCCN=C(N)N)NC(=O)[C@@H](NC(=O)[C@H](CCSC)NC(=O)[C@@H]1CCCN1C(=O)CNC(=O)[C@H](Cc1cnc[nH]1)NC(=O)[C@@H](NC(=O)[C@H](CCCCN)NC(=O)[C@H](CCCN=C(N)N)NC(=O)[C@H](CCCN=C(N)N)NC(=O)[C@H](CCCN=C(N)N)NC(=O)[C@H](CS)NC(=O)[C@@H](N)CCCCN)C(C)C)[C@@H](C)CC)C(=O)N[C@@H](CCCN=C(N)N)C(=O)N[C@@H](CCCCN)C(=O)N[C@@H](CCCCN)C(=O)O [KCRRRKVHGPMIRIRKK]

- MIC (Escherichia coli UTI89): ≥ 50 µM
- MIC [10]: ≥ 50 µM
- MIC [11]: > 50 µM
- MIC [12]: ≥ 50 µM
SMILES: CC[C@H](C)[C@H](NC(=O)[C@H](CCCCN)NC(=O)[C@@H](N)CCCCN)C(=O)NCC(=O)N[C@@H](CCC(N)=O)C(=O)N[C@@H](CCCCN)C(=O)N[C@H](C(=O)N[C@@H](CCCCN)C(=O)N[C@@H](CC(N)=O)C(=O)N[C@@H](Cc1ccccc1)C(=O)N[C@@H](Cc1ccccc1)C(=O)N[C@@H](CCC(N)=O)C(=O)N[C@@H](CCCCN)C(=O)N[C@@H](CC(C)C)C(=O)O)[C@@H](C)CC [KKIGQKIKNFFQKL]

- MIC [23]: 5.9 µM (≈ 12.2 µg/mL)
- MIC [37]: 10.3 µM (≈ 21.4 µg/mL)
- MIC [38]: 20.8 µM (≈ 43.1 µg/mL)
- MIC [39]: 11 µM (≈ 22.8 µg/mL)
SMILES: CC[C@H](C)[C@H](NC(=O)[C@@H](N)CO)C(=O)N[C@@H](CO)C(=O)N[C@@H](CC(C)C)C(=O)N[C@@H](CC(C)C)C(=O)N[C@@H](Cc1ccc(O)cc1)C(=O)NCC(=O)N[C@@H](CCCN=C(N)N)C(=O)N[C@@H](CCCCN)C(=O)N[C@@H](CCCCN)C(=O)N[C@@H](CCCN=C(N)N)C(=O)N[C@@H](CCCN=C(N)N)C(=O)N[C@@H](CCC(N)=O)C(=O)N[C@@H](CCCN=C(N)N)C(=O)N[C@@H](CCCN=C(N)N)C(=O)N[C@@H](CCCN=C(N)N)C(=O)O [SISLLYGRKKRRQRRR]
